{
  "source": "patent US20260007688A1",
  "about": "“SYNTHETIC ANALOGS OF CANNABINOL (CBN) FOR THE TREATMENT OF AGERELATED NEUROLOGICAL DISORDERS” (priority 2023, published 2026)",
  "key": {"HT22 cells [1]": {"tested_on": "HT22 cells", "type": "cell-based, mouse", "description": "A series of fragment chemicals with different variants of the substructures were assembled and screened in a cell-based phenotypic screening assays in the context of oxytosis/ferroptosis (FIG. 1). Specifically, for the left unit (LU), monoterpenoids with different functional groups and/or double-bond substitutions as well as ring arrangements were screened. For the central unit (CU), benzene rings with different hydroxyl group substitutions were screened. For the right unit (RU), different lengths, with or without branches, of the aliphatic hydrocarbon chains were examined.\nCBN, CBD and THC were used as reference compounds.\n(§1) Briefly, HT22 cells were seeded at 3,000 cells/well in 96-well tissue culture plates in DMEM plus 10% FBS and 1% antibiotics. After 24 hours of plating, the cells were pretreated with different concentrations of the test compounds or a vehicle control for 1 hour followed by coincubation with 5 mM glutamate to initiate the cell death cascade. After 16 hours of treatment, cell viability was measured by the 3-(4,5-dimethylthiazol-2-yl)-2,5-diphenyltetrazolium bromide (MTT) assay. Optical absorbance was measured at 570 nm on a SpectraMax M5 microplate reader. Samples were analyzed in eight to sixteen wells per independent experiment (n=8-16).\nas §1, with “The assay procedure described in Fischer et al. was used. Briefly,” for “Briefly,”, “of” for “of the”, “50-100 nM RSL3 or 500 nM erastin” for “5 mM glutamate”, “induce” for “initiate”, “MTT” for “3-(4,5-dimethylthiazol-2-yl)-2,5-diphenyltetrazolium bromide (MTT)”"}, "HT22 cells [2]": {"tested_on": "HT22 cells", "test": "Ferroptosis assay, RSL3-induced cell death, MTT viability", "type": "cell-based", "conditions": "Mus musculus, HT-22, 50 nM RSL3, 16 hours", "protocol": "(§2) HT22 mouse hippocampal nerve cells were cultured in high-glucose Dulbecco's modified Eagle's medium (DMEM) (Invitrogen, Cat #11995065, Carlsbad, CA) supplemented with 10% fetal bovine serum (FBS) (Invitrogen, Carlsbad, CA) and 1% antibiotics including penicillin and streptomycin (Invitrogen Cat #10378016, Carlsbad, CA). Cell cultures were incubated at 37° C. in a fully humidified atmosphere containing 10% CO2.\nas §1, with “The assay procedure described in Fischer et al. was used. Briefly,” for “Briefly,”, “of” for “of the”, “50-100 nM RSL3 or 500 nM erastin” for “5 mM glutamate”, “induce” for “initiate”, “MTT” for “3-(4,5-dimethylthiazol-2-yl)-2,5-diphenyltetrazolium bromide (MTT)”, “(n=8-16). Results are presented as the percentage of the controls with vehicle alone.” for “(n=8-16).”"}, "HT22 cells [3]": {"tested_on": "HT22 cells", "test": "Oxytosis assay, glutamate-induced cell death, MTT viability", "type": "cell-based", "conditions": "Mus musculus, HT-22, 5 mM glutamate, 16 hours", "protocol": "as §2\nThe assay procedure described in Fischer et al., “Old age-associated phenotypic screening for Alzheimer's disease drug candidates identifies sterubin as a potent neuroprotective compound from Yerba santa” Redox Biol. 21 (2019) 101089 was used. Briefly, HT22 cells were seeded at 3,000 cells/well in 96-well tissue culture plates in DMEM plus 10% FBS and 1% antibiotics. After 24 hours of plating, the cells were pretreated with different concentrations of the test compounds or a vehicle control for 1 hour followed by coincubation with 5 mM glutamate to initiate the cell death cascade. After 16 hours of treatment, cell viability was measured by the 3-(4,5-dimethylthiazol-2-yl)-2,5-diphenyltetrazolium bromide (MTT) assay. Optical absorbance was measured at 570 nm on a SpectraMax M5 microplate reader. Samples were analyzed in eight to sixteen wells per independent experiment (n=8-16). Results are presented as the percentage of the controls with vehicle alone."}, "HT22 cells [4]": {"tested_on": "HT22 cells", "test": "Ferroptosis assay, erastin-induced cell death, MTT viability", "type": "cell-based", "conditions": "Mus musculus, HT-22, 500 nM erastin, 16 hours", "protocol": "as §2\nas §1, with “The assay procedure described in Fischer et al. was used. Briefly,” for “Briefly,”, “of” for “of the”, “50-100 nM RSL3 or 500 nM erastin” for “5 mM glutamate”, “induce” for “initiate”, “MTT” for “3-(4,5-dimethylthiazol-2-yl)-2,5-diphenyltetrazolium bromide (MTT)”, “(n=8-16). Results are presented as the percentage of the controls with vehicle alone.” for “(n=8-16).”"}, "MC65 cells": {"tested_on": "MC65 cells", "test": "Intracellular amyloid toxicity assay", "type": "cell-based", "conditions": "Homo sapiens, 72 h, APP-C99 induced, day 3, MTT, read-out: Aβ toxicity EC50", "description": "Accumulation of intracellular amyloid beta peptide (Aβ) is considered by many as being a primary toxic event in AD. The human nerve cell line MC65 conditionally expresses the C99 fragment of the amyloid precursor protein (APP) leading to the accumulation of intracellular AB. The MC65 cells are routinely grown in the presence of tetracycline and, following its removal, the expression of C99 is induced and the cells die within three days because of the accumulation of intracellular, toxic protein aggregates.\nFor the intracellular amyloid toxicity assay the procedure described in Huang et al., “Intracellular amyloid toxicity induces oxytosis/ferroptosis regulated cell death” Cell Death Dis. 11 (10) (2020) 828 was used. Briefly, MC65 cells were regularly grown in high glucose DMEM supplemented with 10% FCS and 2 μg/ml tetracycline. For the assay, cells were dissociated and plated at 1×10^5 cells per well in 24 well tissue culture plates. After overnight cultivation in growth medium, the cells were washed three times with phosphate buffered saline containing calcium and magnesium and then switched to Opti-minimal essential media (Opti-MEM, Invitrogen) in the presence (no induction) or absence (APP-C99 induced) of 2 μg/ml tetracycline in the presence or absence different concentrations of the indicated compounds. At day 3, the control cells in the absence of tetracycline were dead, and cell viability was determined by the MTT assay. Optical absorbance was measured at 570 nm on a SpectraMax M5 microplate reader. Samples were analyzed in three wells per independent experiment (n=3). Results are presented as EC50."}, "HT22 cells [5]": {"tested_on": "HT22 cells", "test": "Seahorse XF mitochondrial stress test (OCR)", "type": "cell-based, mouse", "conditions": "16 hours, compared with the control cells"}, "HT22 cells [6]": {"tested_on": "HT22 cells", "test": "Mitochondrial reactive oxygen species measurement (MitoSOX Red)", "type": "cell-based, mouse", "conditions": "5 μM compound + 50 nM RSL3", "protocol": "The assay procedure described in Liang et al. was used. Briefly, HT22 cells were seeded onto 96-well black walled plates at a density of 3,000 cells/well in DMEM supplemented with 10% FBS and 1% antibiotics. After the desired treatments, the mitochondrial superoxide ROS were detected with MitoSOX Red reagent (Ex/Em=510/580 nm). Experiments were performed according to the manufacturer's instructions. Fluorescence was measured on a SpectraMax M5 microplate reader. Data were normalized for total protein/well. Each condition was analyzed in eight wells per independent experiment (n=8). Results are presented as the percentage of the controls with vehicle alone. Results were verified by live-cell imaging under a fluorescence microscope. FIG. 14 provides the results."}, "Drosophila melanogaster": {"tested_on": "Drosophila melanogaster", "test": "Drosophila mild traumatic brain injury (mTBI) model", "type": "in vivo", "conditions": "3.0 μM in food, 3 weeks after mTBI (10×); vehicle 70.2%"}},
  "note": "pEC50: −log10 of the molar value. Read-outs that look alike come from different tables or passages of the source.",
  "data": [
    {"smiles": "CC(C)(C)c1cc(O)ccc1O", "note": "[2-tert-butylbenzene-1,4-diol]", "values": [
      {"measurement": "neuroprotective activity against oxytosis/ferroptosis", "setting": "HT22 cells [1]; 10-50 μM, glutamate and RSL3", "value": "good to excellent neuroprotective activity"}
    ]},
    {"smiles": "CCCCc1ccc(O)c(O)c1", "note": "[4-butylbenzene-1,2-diol]", "values": [
      {"measurement": "neuroprotective activity against oxytosis/ferroptosis", "setting": "HT22 cells [1]; 10-50 μM, glutamate and RSL3", "value": "good to excellent neuroprotective activity"}
    ]},
    {"smiles": "CCCCCCc1ccc(O)cc1O", "note": "[4-hexylresorcinol, 4-hexylbenzene-1,3-diol]", "values": [
      {"measurement": "neuroprotective activity against oxytosis/ferroptosis", "setting": "HT22 cells [1]; 10-50 μM, glutamate and RSL3", "value": "good to excellent neuroprotective activity"}
    ]},
    {"smiles": "CCCCCCC(C)(C)c1cc(O)cc(O)c1", "note": "[5-(1,1-dimethylheptyl) resorcinol]", "values": [
      {"measurement": "neuroprotection", "setting": "HT22 cells [1]; 1 μM", "value": "> 50", "unit": "%"}
    ]},
    {"smiles": "CCCCCCCCCCCCCCCc1cc(O)cc(O)c1", "note": "[5-pentadecylresorcinol]", "values": [
      {"measurement": "neuroprotective activity against oxytosis/ferroptosis", "setting": "HT22 cells [1]; 1-50 μM, glutamate and RSL3", "value": "no further improvement in neuroprotective activity"}
    ]},
    {"smiles": "CCCCCCC(C)(C)c1cc(O)c2c(c1)OC(C)(C)C=C2", "note": "[CP1, 2,2-dimethyl-7-(2-methyloctan-2-yl)-2H-chromen-5-ol]", "values": [
      {"measurement": "pEC50", "setting": "HT22 cells [2]", "value": 6.17},
      {"measurement": "pEC50", "setting": "HT22 cells [3]", "value": 5.72},
      {"measurement": "pEC50", "setting": "HT22 cells [4]", "value": 5.56},
      {"measurement": "pEC50", "setting": "MC65 cells", "value": 7.51},
      {"measurement": "maximal and spare mitochondrial respiration (OCR)", "setting": "HT22 cells [5]", "value": "strongest effect on the suppression"},
      {"measurement": "RSL3-induced mtROS production", "setting": "HT22 cells [6]", "value": "strongest anti-mtROS effect"},
      {"measurement": "3-week mortality index (MI), percentage of dead flies", "setting": "Drosophila melanogaster", "value": 49.5, "unit": "%"}
    ]},
    {"smiles": "CCCCCCC(C)(C)c1cc(O)c2c(c1)OC(C)C=C2", "note": "(centres unmarked) [CP2, 2-methyl-7-(2-methyloctan-2-yl)-2H-chromen-5-ol]", "values": [
      {"measurement": "pEC50", "setting": "HT22 cells [2]", "value": 6.04},
      {"measurement": "pEC50", "setting": "HT22 cells [3]", "value": 5.54},
      {"measurement": "pEC50", "setting": "HT22 cells [4]", "value": 5.47},
      {"measurement": "pEC50", "setting": "MC65 cells", "value": 7.01},
      {"measurement": "3-week mortality index (MI), percentage of dead flies", "setting": "Drosophila melanogaster", "value": 66.7, "unit": "%"}
    ]},
    {"smiles": "CCCCCc1cc(O)c2c(c1)OC(C)(C)C=C2", "note": "[CP3, 2,2-dimethyl-7-pentyl-2H-chromen-5-ol]", "values": [
      {"measurement": "pEC50", "setting": "HT22 cells [2]", "value": 6.07},
      {"measurement": "pEC50", "setting": "HT22 cells [3]", "value": 5.59},
      {"measurement": "pEC50", "setting": "HT22 cells [4]", "value": 5.42},
      {"measurement": "pEC50", "setting": "MC65 cells", "value": 6.84},
      {"measurement": "3-week mortality index (MI), percentage of dead flies", "setting": "Drosophila melanogaster", "value": 67.3, "unit": "%"}
    ]},
    {"smiles": "CCCCCc1cc(O)c2c(c1)OC(C)C=C2", "note": "(centres unmarked) [CP4, 2-methyl-7-pentyl-2H-chromen-5-ol]", "values": [
      {"measurement": "pEC50", "setting": "HT22 cells [2]", "value": 6.08},
      {"measurement": "pEC50", "setting": "HT22 cells [3]", "value": 5.18},
      {"measurement": "pEC50", "setting": "HT22 cells [4]", "value": 5.09},
      {"measurement": "pEC50", "setting": "MC65 cells", "value": 5.80},
      {"measurement": "3-week mortality index (MI), percentage of dead flies", "setting": "Drosophila melanogaster", "value": 61.9, "unit": "%"}
    ]},
    {"smiles": "Oc1ccccc1O", "note": "[catechol]", "values": [
      {"measurement": "neuroprotective activity against oxytosis/ferroptosis", "setting": "HT22 cells [1]; 10-50 μM, glutamate and RSL3", "value": "weak neuroprotective activities"}
    ]},
    {"smiles": "Oc1ccc(O)cc1", "note": "[hydroquinone]", "values": [
      {"measurement": "neuroprotective activity against oxytosis/ferroptosis", "setting": "HT22 cells [1]", "value": "weak neuroprotective activities"}
    ]},
    {"smiles": "Oc1ccc(O)c(O)c1", "note": "[hydroxyquinol]", "values": [
      {"measurement": "neuroprotective activity against oxytosis/ferroptosis", "setting": "HT22 cells [1]; 1-50 μM, glutamate and RSL3", "value": "limited neuroprotective activity"}
    ]},
    {"smiles": "CCCCCc1cc(O)cc(O)c1", "note": "[olivetol, 5-pentyl-1,3-benzenediol]", "values": [
      {"measurement": "neuroprotective activity against oxytosis/ferroptosis", "setting": "HT22 cells [1]; 10-50 μM, glutamate and RSL3", "value": "good to excellent neuroprotective activity"}
    ]},
    {"smiles": "Oc1ccccc1", "note": "[phenol]", "values": [
      {"measurement": "neuroprotective activity against oxytosis/ferroptosis", "setting": "HT22 cells [1]", "value": "limited neuroprotective activity"}
    ]},
    {"smiles": "Oc1cc(O)cc(O)c1", "note": "[phloroglucinol]", "values": [
      {"measurement": "neuroprotective activity against oxytosis/ferroptosis", "setting": "HT22 cells [1]; 1-50 μM, glutamate and RSL3", "value": "limited neuroprotective activity"}
    ]},
    {"smiles": "Oc1cccc(O)c1O", "note": "[pyrogallol]", "values": [
      {"measurement": "neuroprotective activity against oxytosis/ferroptosis", "setting": "HT22 cells [1]; 1-50 μM, glutamate and RSL3", "value": "limited neuroprotective activity"}
    ]},
    {"smiles": "Oc1cccc(O)c1", "note": "[resorcinol]", "values": [
      {"measurement": "neuroprotective activity against oxytosis/ferroptosis", "setting": "HT22 cells [1]; 1-50 μM, glutamate and RSL3", "value": "limited neuroprotective activity"}
    ]}
  ]
}
